# Laboratory results from the supplement of paper PMC12137928.
# Where a name gives a salt, the structure may show the parent alone.
# Test system: HCT116
# Details: 72 h
# In short: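 For IC50 and maximal efficacy, four-parameter Hill fits were used. Input values were CellTiter-Glo luminescence from HCT116 cells seeded at 250 per well in 1536-well plates, normalized to vehicle (0%) and positive control (-100%). Pattern correction followed normalization.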
Structure (SMILES),IC50 cell viability (ICRF193 0 nM),IC50 cell viability (ICRF193 200 nM)
CC(C)(C)c1nnc(NS(=O)(=O)c2ccccc2)s1 [Glybuzole],> 45.8 µM,> 45.8 µM
Nc1ccccc1C(=O)OCC(O)CO (stereo not given) [Glyceryl 1-(2-aminobenzoate)],> 45.8 µM,> 45.8 µM
O=C(NN1CCCC1)NS(=O)(=O)c1ccc(Cl)cc1 [Glyclopyramide],> 45.8 µM,> 45.8 µM
C[N+]1(C)CCC(OC(=O)C(O)(c2ccccc2)C2CCCC2)C1 (stereo not given) [Glycopyrrolate bromide],> 45.8 µM,> 45.8 µM
COCCOc1cnc(NS(=O)(=O)c2ccccc2)nc1 [Glymidine sodium],> 45.8 µM,> 45.8 µM
CN1C2CCCC1CC(NC(=O)c1nn(C)c3ccccc13)C2 (stereo not given) [Granisetron (AB-1001)],> 45.8 µM,> 45.8 µM
Cc1c(F)c(N2CCNC(C)C2)cc2c1c(=O)c(C(=O)O)cn2C1CC1 (stereo not given) [Grepafloxacin hydrochloride],> 45.8 µM,> 45.8 µM
COc1ccccc1OC(=O)Oc1ccccc1OC [Guaiacol carbonate],> 45.8 µM,> 45.8 µM
COc1ccccc1O [Guaiacol],> 45.8 µM,> 45.8 µM
N=C(N)NCC1COC2(CCCCC2)O1 (stereo not given) [Guanadrel sulfate],> 45.8 µM,> 45.8 µM
N=C(N)NCCN1CCCCCCC1 [Guanethidine sulfate],> 45.8 µM,> 45.8 µM
N=C(N)NC(=O)Cc1c(Cl)cccc1Cl [Guanfacine hydrochloride],> 45.8 µM,> 45.8 µM
FC(F)(F)C(Cl)Br (stereo not given) [HALOTHANE],> 45.8 µM,> 45.8 µM
CC1(C)S[C@@H]2[C@H](N3C(=O)[C@@H](c4ccccc4)NC3(C)C)C(=O)N2[C@H]1C(=O)O [HETACILLIN POTASSIUM],> 45.8 µM,> 45.8 µM
CC(N)Cc1ccc(O)cc1 (stereo not given) [HYDROXYAMPHETAMINE HYDROBROMIDE],> 45.8 µM,> 45.8 µM
CN1[C@@H]2CC[C@H]1C[C@@H](OC(=O)[C@H](CO)c1ccccc1)C2 [HYOSCYAMINE],> 45.8 µM,> 45.8 µM
CC1(C)O[C@@H]2C[C@H]3[C@@H]4CCC5=CC(=O)CC[C@]5(C)[C@@]4(F)[C@@H](O)C[C@]3(C)[C@]2(C(=O)CCl)O1 [Halcinonide],> 45.8 µM,> 45.8 µM
O=C(CC1NCCCC1O)Cn1cnc2cc(Br)c(Cl)cc2c1=O (stereo not given) [Halofuginone hydrochloride],> 45.8 µM,> 45.8 µM
Cc1c(Cl)c(=O)oc2cc(OP(=O)(OCCCl)OCCCl)ccc12 [Haloxon],> 45.8 µM,> 45.8 µM

Structure (SMILES),IC50 cell viability (ICRF193 0 nM),IC50 cell viability (ICRF193 200 nM)
CN1C(=O)NC(=O)C(C)(C2=CCCCC2)C1=O (stereo not given) [Hexobarbital],> 45.8 µM,> 45.8 µM
C[N+]1(C)CCN(CC(O)(c2ccccc2)C2CCCCC2)CC1 (stereo not given) [Hexocyclium],> 45.8 µM,> 45.8 µM
O=C(O)CNC(=O)c1ccccc1 [Hippuric acid],> 45.8 µM,> 45.8 µM
NCCc1c[nH]cn1 [Histamine dihydrochloride],> 45.8 µM,> 45.8 µM
C/C=C1\[C@H]2C=C(C)C[C@]1(N)c1ccc(=O)[nH]c1C2 [Huperzine A],> 45.8 µM,> 45.8 µM
NS(=O)(=O)c1cc2c(cc1Cl)NCNS2(=O)=O [Hydrochlorothiazide],> 45.8 µM,> 45.8 µM
C[C@]12CCC(=O)C=C1CC[C@@H]1[C@@H]2[C@@H](O)C[C@@]2(C)[C@H]1CC[C@]2(O)C(=O)COP(=O)(O)O [Hydrocortisone Sodium Phosphate],> 45.8 µM,> 45.8 µM
C[C@]12CCC(=O)C=C1CC[C@@H]1[C@@H]2[C@@H](O)C[C@@]2(C)[C@H]1CC[C@]2(O)C(=O)CO [Hydrocortisone],> 45.8 µM,> 45.8 µM
COc1c2c(cc3c1OCO3)CCN(C)C2 [Hydrocotarnine hydrobromide],> 45.8 µM,> 45.8 µM
NS(=O)(=O)c1cc2c(cc1C(F)(F)F)NCNS2(=O)=O [Hydroflumethiazide],> 45.8 µM,> 45.8 µM
CC[C@H]1CN2CC[C@H]1C[C@@H]2[C@@H](O)c1ccnc2ccc(OC)cc12 [Hydroquinidine HCl],> 45.8 µM,> 45.8 µM
Oc1ccc(O)cc1 [Hydroquinone],> 45.8 µM,> 45.8 µM
N=C(N)c1ccc(/C=C/c2ccc(C(=N)N)cc2O)cc1 [Hydroxystilbamidine bis(methanesulfonate)],> 45.8 µM,> 45.8 µM
NC(=O)NO [Hydroxyurea],> 45.8 µM,> 45.8 µM
OCCOCCN1CCN(C(c2ccccc2)c2ccc(Cl)cc2)CC1 (stereo not given) [Hydroxyzine],> 45.8 µM,> 45.8 µM
CNC1CC(N)C(O)C(OC2OC(CO)C(O)C3OC4(OC(C(N)CO)C(O)C(O)C4O)OC23)C1O (stereo not given) [Hygromycin B],> 45.8 µM,> 45.8 µM
N=C1NC(=O)N2CC12 (stereo not given) [IMEXON],> 45.8 µM,> 45.8 µM
O=C(O[C@H]1[C@H](OC(=O)c2cccnc2)[C@@H](OC(=O)c2cccnc2)[C@H](OC(=O)c2cccnc2)[C@@H](OC(=O)c2cccnc2)[C@H]1OC(=O)c1cccnc1)c1cccnc1 [INOSITOL NIACINATE],> 45.8 µM,> 45.8 µM

# Next, values leading:
IC50 cell viability (ICRF193 0 nM),IC50 cell viability (ICRF193 200 nM),Structure (SMILES)
> 45.8 µM,> 45.8 µM,CC(C)C[C@H](NC(=O)[C@@H](COC(C)(C)C)NC(=O)[C@H](Cc1ccc(O)cc1)NC(=O)[C@H](CO)NC(=O)[C@H](Cc1c[nH]c2ccccc12)NC(=O)[C@H](Cc1cnc[nH]1)NC(=O)[C@@H]1CCC(=O)N1)C(=O)N[C@@H](CCCNC(=N)N)C(=O)N1CCC[C@H]1C(=O)NNC(N)=O [Goserelin (acetate)]
> 45.8 µM,> 45.8 µM,Cc1ccc(C(C)C)cc2c(C)ccc1-2 [Guaiazulene]
> 45.8 µM,> 45.8 µM,COc1ccccc1OCC(O)CO (stereo not given) [Guaifenesin]
> 45.8 µM,> 45.8 µM,N=C(N)NCCCCCCC(=O)NC(O)C(=O)NCCCCNCCCN (stereo not given) [Gusperimus trihydrochloride]
> 45.8 µM,> 45.8 µM,CCCCCCCCCC(=O)OC1(c2ccc(Cl)cc2)CCN(CCCC(=O)c2ccc(F)cc2)CC1 [HALOPERIDOL DECANOATE]
> 45.8 µM,> 45.8 µM,C[N+]1(C)[C@@H]2CC[C@H]1C[C@@H](OC(=O)C(O)c1ccccc1)C2 (stereo not given in full) [HOMATROPINE METHYLBROMIDE]
> 45.8 µM,> 45.8 µM,CCC(=O)O[C@]1(C(=O)COC(C)=O)CC[C@H]2[C@@H]3CCC4=CC(=O)CC[C@]4(C)[C@H]3[C@@H](O)C[C@@]21C [HYDROCORTISONE ACEPONATE]
> 45.8 µM,> 45.8 µM,CCC(=O)O[C@]1(C(=O)CCl)[C@@H](C)C[C@H]2[C@@H]3C[C@H](F)C4=CC(=O)C=C[C@]4(C)[C@@]3(F)[C@@H](O)C[C@@]21C [Halobetasol Propionate]
> 45.8 µM,> 45.8 µM,O=C(CCCN1CCC(O)(c2ccc(Cl)cc2)CC1)c1ccc(F)cc1 [Haloperidol]
> 45.8 µM,> 45.8 µM,"CCCCCCCCCCCCCCCC(=O)OC(C)C [Hexadecanoic acid, 1-methylethyl ester]"
> 45.8 µM,> 45.8 µM,C[N+](C)(CCCCCC[N+](C)(C)C1c2ccccc2-c2ccccc21)C1c2ccccc2-c2ccccc21 [Hexafluorenium dibromide]
> 45.8 µM,> 45.8 µM,O=C(O)CCCCC(=O)O [Hexanedioic acid]
> 45.8 µM,> 45.8 µM,CCCCC(CC)CN1CN(CC(CC)CCCC)CC(C)(N)C1 (stereo not given) [Hexetidine]
> 45.8 µM,> 45.8 µM,Oc1ccc(C(O)CNCCCCCCNCC(O)c2ccc(O)c(O)c2)cc1O (stereo not given) [Hexoprenaline sulfate]
> 45.8 µM,> 45.8 µM,CC(CNC1CCCCC1)OC(=O)c1ccccc1 (stereo not given) [Hexylcaine hydrochloride]
> 45.8 µM,> 45.8 µM,CCN(CC)CC(=O)OCC(=O)[C@@]1(O)CC[C@H]2[C@@H]3CCC4=CC(=O)CC[C@]4(C)[C@H]3[C@@H](O)C[C@@]21C [Hydrocortamate]
> 45.8 µM,> 45.8 µM,CCCC(=O)O[C@]1(C(=O)CO)CC[C@H]2[C@@H]3CCC4=CC(=O)CC[C@]4(C)[C@H]3[C@@H](O)C[C@@]21C [Hydrocortisone 17-butyrate]
> 45.8 µM,> 45.8 µM,C[C@]12CCC(=O)C=C1CC[C@@H]1[C@@H]2[C@@H](O)C[C@@]2(C)[C@H]1CC[C@]2(O)C(=O)COC(=O)CCC(=O)O [Hydrocortisone 21-hemisuccinate sodium salt]
> 45.8 µM,> 45.8 µM,CC(=O)OCC(=O)[C@@]1(O)CC[C@H]2[C@@H]3CCC4=CC(=O)CC[C@]4(C)[C@H]3[C@@H](O)C[C@@]21C [Hydrocortisone acetate]
> 45.8 µM,> 45.8 µM,CCCC(=O)O[C@]1(C(=O)COC(=O)CC)CC[C@H]2[C@@H]3CCC4=CC(=O)CC[C@]4(C)[C@H]3[C@@H](O)C[C@@]21C [Hydrocortisone buteprate]
> 45.8 µM,> 45.8 µM,CCCCC(=O)O[C@]1(C(=O)CO)CC[C@H]2[C@@H]3CCC4=CC(=O)CC[C@]4(C)[C@H]3[C@@H](O)C[C@@]21C [Hydrocortisone valerate]
> 45.8 µM,> 45.8 µM,CCN(CCO)CCCC(C)Nc1ccnc2cc(Cl)ccc12 (stereo not given) [Hydroxychloroquine sulfate]
> 45.8 µM,> 45.8 µM,CC(CC=O)CCCC(C)(C)O (stereo not given) [Hydroxycitronellal]
